Key:
[1] = Half life in human liver microsomes at 1 uM in presence of NADPH
[2] = Half life in rat liver microsomes at 1 uM in presence of NADPH
CYP3A4/5 = CYP3A4/5 (Homo sapiens, UniProt P08684+P20815); assay: Reversible inhibition of CYP3A4/5 in human liver microsomes using midazolam as substrate preincubated for 30 mins followed by NADPH and substrate addition measured after 10 mins; format: ADME, Microsome; settings: probe midazolam
[3] = Half life in Sprague-Dawley rat at <= 1 mg/kg, iv; format: ADME, organism-based; design: dose 1 mg/kg, route intravenous; settings: in vivo
[4] = Volume of distribution at steady state in Sprague-Dawley rat at <= 1 mg/kg, iv; format: ADME, organism-based; design: dose 1 mg/kg, route intravenous; settings: in vivo, read-out: Vdss
[5] = Clearance in Sprague-Dawley rat at <= 1 mg/kg, iv; format: ADME, organism-based; design: dose 1 mg/kg, route intravenous; settings: in vivo
[6] = Lipophilicity, log P of the compound; format: physicochemical; settings: octanol/water

| SMILES | half-life at 1 µM ([1]; microsomes) | half-life at 1 µM ([2]; microsomes) | half-life at 1 µM ([1]; liver microsomes) | half-life at 1 µM ([2]; liver microsomes) | IC50 at 10 min (CYP3A4/5) | further results |
| --- | --- | --- | --- | --- | --- | --- |
| CC(c1ccc(-c2ccc(C#N)cn2)cc1)C(F)(F)F (centres undefined) | 1.1 h | 0.417 h |  |  |  |  |
| CC(C)(C(=O)O)c1ccc(-c2ccc(C#N)cn2)cc1 | 4.57 h | 2.25 h |  |  |  |  |
| CC(C)(C)c1ccc(C(=O)Nc2ccc(C(F)(F)F)cc2)cc1 |  |  | 0.483 h | 0.2 h |  |  |
| CC1(c2ccc(-c3ccc(C#N)cn3)cc2)COC1 | 0.633 h | 0.617 h |  |  | > 50 µM | half-life [3]: 0.4 h; Vd [4]: 1.3 L/kg; clearance [5]: 1.68 L/h/kg |
| CC(C)(CO)c1ccc(-c2ccc(C#N)cn2)cc1 | 3.37 h | 2.08 h |  |  |  |  |
| Fc1ccc(-c2ccc(C3(C(F)(F)F)CC3)cc2)nc1 |  |  | 1.07 h | > 6.75 h | > 50 µM |  |
| N#Cc1ccc(-c2ccc(C3(C(F)(F)F)CC3)cc2)nc1 |  |  | 2.5 h | > 6.67 h | > 50 µM | half-life [3]: 9.1 h; Vd [4]: 3.4 L/kg; clearance [5]: 0.276 L/h/kg; logP [6]: 4 |
| O=C(Nc1ccc(C(F)(F)F)cc1)c1ccc(C2(C(F)(F)F)CC2)cc1 | > 6.75 h | 0.667 h |  |  |  |  |
| N#Cc1ccc(-c2ccc(C3(C(F)(F)F)CC3)nc2)nc1 |  |  | 1.83 h | 2.15 h |  |  |
| CC(C)(C)c1ccc(C(=O)Nc2ccc(C(F)(F)F)nc2)cc1 |  |  | 0.683 h | 0.417 h | > 50 µM | half-life [3]: 0.2 h; Vd [4]: 5.4 L/kg; clearance [5]: 21.1 L/h/kg |
| C[C@]12C=CC(=O)N[C@@H]1CC[C@@H]1[C@@H]2CC[C@]2(C)[C@@H](C(=O)NC3(C(F)(F)F)CC3)CC[C@@H]12 |  |  | 1.9 h |  |  |  |
| CC(C)(C)NC(=O)[C@H]1CC[C@H]2[C@@H]3CC[C@H]4NC(=O)C=C[C@]4(C)[C@H]3CC[C@]12C [FINASTERIDE] | 1.05 h |  |  |  |  |  |
| CC(C)(C)c1ccc(-c2ccc(F)cn2)cc1 | 0.45 h | 0.4 h |  |  | > 50 µM |  |
| CC(C)c1ccc(-c2ccc(C#N)cn2)cc1 | 0.15 h | 0.117 h |  |  | > 50 µM |  |
| CC(C)(C)c1ccc(C(=O)Nc2ccc(C#N)nc2)cc1 |  |  | 0.85 h | 0.4 h |  |  |
| N#Cc1cc(-c2ccc(C3(C(F)(F)F)CC3)cc2)ccn1 |  |  | 1.15 h | 1.25 h |  |  |
| N#Cc1ccc(NC(=O)c2ccc(C3(C(F)(F)F)CC3)cc2)cc1 | > 6.75 h | 0.783 h |  |  |  |  |
| O=C(Nc1ccc(C(F)(F)F)nc1)c1ccc(C2(C(F)(F)F)CC2)cc1 |  |  | > 6.75 h | 3.28 h | > 50 µM | half-life [3]: 3.4 h; Vd [4]: 6.2 L/kg; clearance [5]: 1.5 L/h/kg |
| CC(C)(C#N)c1ccc(-c2ccc(C#N)cn2)cc1 | 2.03 h | 1.17 h |  |  |  |  |
| CC(C)(C)c1ccc(-c2ccnc(C#N)c2)cc1 |  |  | 0.417 h | 0.133 h |  |  |
| N#Cc1ccc(NC(=O)c2ccc(C3(C(F)(F)F)CC3)cc2)cn1 |  |  | 1.47 h | 1.63 h |  |  |
| CC(C)(C)c1ccc(C(=O)Nc2ccc(C#N)cc2)cc1 |  |  | 1.42 h | 0.2 h |  |  |
| CC(C)(C)c1ccc(-c2ccc(C#N)cn2)cc1 | 0.85 h | 0.5 h |  |  | > 50 µM | half-life [3]: 2.3 h; Vd [4]: 2.5 L/kg; clearance [5]: 1.2 L/h/kg; logP [6]: 4.2 |

— ChEMBL document CHEMBL2384944, “Metabolically Stable tert-Butyl Replacement” (ACS Med Chem Lett, 2013)
